Legend:
[1] = Sensory profile scores (Sweet, Licorice, Lingering) compared with mogroside V
[2] = Tasting of a sample of the purified compound (taste perceived, sweetness relative to sucrose); details: for sweetness relative to sucrose: tasted at 500 ppm in a water base, approximate
Description: The sweetness intensity perceived was weaker than the sweetness intensity perceived with mogroside V. However, the perception of licorice and lingering profile of isomogroside IVe was weaker than that of mogroside V (see table on following page).

[3] = tasted at a concentration of 500 ppm in a water base
[4] = tasted at a concentration of 250 ppm

Question: For C[C@H](CC[C@@H](O[C@@H]1O[C@H](CO[C@@H]2O[C@H](CO)[C@@H](O)[C@H](O)[C@H]2O)[C@@H](O)[C@H](O)[C@H]1O[C@@H]1O[C@H](CO)[C@@H](O)[C@H](O)[C@H]1O)C(C)(C)O)[C@H]1CC[C@@]2(C)[C@@H]3CC=C4[C@@H](CC[C@H](O[C@@H]5O[C@H](CO[C@@H]6O[C@H](CO)[C@@H](O)[C@H](O)[C@H]6O)[C@@H](O)[C@H](O)[C@H]5O)C4(C)C)[C@]3(C)[C@H](O)C[C@]12C [Mogroside V, reference compound], which Licorice ([1]; Dosage 250 ppm) is on record?
Answer: 3.8

Question: And the Lingering ([1]; Dosage 250 ppm)?
Answer: 4.9

Question: What about the Sweet ([1]; Dosage 250 ppm) of the same molecule?
Answer: 6.0

Question: What about the Licorice ([1]; Dosage 500 ppm) of the same molecule?
Answer: 4.2

Question: What about the Lingering ([1]; Dosage 500 ppm) of the same molecule?
Answer: 5.2

Question: And the Sweet ([1]; Dosage 500 ppm)?
Answer: 7.2

Question: Which “sweetness relative to sucrose” value [2] does the source give for C[C@H](CC[C@@H](O[C@@H]1O[C@H](CO[C@@H]2O[C@H](CO)[C@@H](O)[C@H](O)[C@H]2O)[C@@H](O)[C@H](O)[C@H]1O[C@@H]1O[C@H](CO)[C@@H](O)[C@H](O)[C@H]1O)C(C)(C)O)[C@H]1CC[C@@]2(C)[C@@H]3CC=C4[C@@H](CC[C@H](O[C@@H]5O[C@H](CO[C@@H]6O[C@H](CO)[C@@H](O)[C@H](O)[C@H]6O)[C@@H](O)[C@H](O)[C@H]5O)C4(C)C)[C@]3(C=O)C(=O)C[C@]12C [Compound 6a, (1S,4R,9beta,24R)-9-formyl-1-{[6-O-(beta-D-glucopyranosyl)-beta-D-glucopyranosyl]oxy}-25-hydroxy-10,14-dimethyl-11-oxo-4,9-cyclo-9,10-secocholest-5-en-24-yl beta-D-glucopyranosyl-(1→2)-[beta-D-glucopyranosyl-(1→6)]-beta-D-glucopyranoside] here?
Answer: 100-200 times sweeter than sucrose

Question: And the taste perceived [2, 3]?
Answer: strong sweet taste

Question: For CC(C)(O)[C@@H](CC[C@](C)(O)[C@H]1CC[C@@]2(C)[C@@H]3CC=C4[C@@H](CC[C@H](O[C@@H]5O[C@H](CO[C@@H]6O[C@H](CO)[C@@H](O)[C@H](O)[C@H]6O)[C@@H](O)[C@H](O)[C@H]5O)C4(C)C)[C@]3(C)[C@H](O)C[C@]12C)O[C@@H]1O[C@H](CO[C@@H]2O[C@H](CO)[C@@H](O)[C@H](O)[C@H]2O)[C@@H](O)[C@H](O)[C@H]1O[C@@H]1O[C@H](CO)[C@@H](O)[C@H](O)[C@H]1O [Compound 7a, (1S,4R,9beta,11alpha,24R)-1-{[6-O-(beta-D-glucopyranosyl)-beta-D-glucopyranosyl]oxy}-11,20,25-trihydroxy-9,10,14-trimethyl-4,9-cyclo-9,10-secocholest-5-en-24-yl beta-D-glucopyranosyl-(1→2)-[beta-D-glucopyranosyl-(1→6)]-beta-D-glucopyranoside], which taste perceived [2, 4] is on record?
Answer: No taste

Question: For isomogroside IVe, which “perception of licorice and lingering profile compared with mogroside V” value ([1]; 250 ppm in a water base) is on record?
Answer: weaker

Question: For “[(1S,4R,9beta,10R,24R)-24-{[beta-D-glucopyranosyl-(1→6)-beta-D-glucopyranosyl-(1→6)-beta-D-glucopyranosyl]oxy}-1,25-dihydroxy-9,14-dimethyl-11-oxo-4,9-cyclo-9,10-secocholest-5-en-10-yl]methyl beta-D-glucopyranosyl-(1→6)-[beta-D-glucopyranosyl-(1→4)-beta-D-glucopyranosyl-(1→2)]-beta-D-glucopyranoside [Compound 10a]”, which taste perceived [2, 4] is on record?
Answer: No taste

Question: Which “sweetness relative to sucrose” value [2] does the source give for C[C@H](CC[C@@H](O[C@@H]1O[C@H](CO[C@@H]2O[C@H](CO)[C@@H](O)[C@H](O)[C@H]2O)[C@@H](O)[C@H](O)[C@H]1O[C@@H]1O[C@H](CO)[C@@H](O)[C@H](O)[C@H]1O)C(C)(C)O)[C@H]1CC[C@@]2(C)[C@@H]3C(O)C=C4[C@@H](CC[C@H](O[C@@H]5O[C@H](CO[C@@H]6O[C@H](CO)[C@@H](O)[C@H](O)[C@H]6O)[C@@H](O)[C@H](O)[C@H]5O)C4(C)C)[C@]3(C)[C@H](O)C[C@]12C (stereo partly drawn) [Compound 4a, (1S,4R,9beta,11alpha,24R)-1-{[6-O-(beta-D-glucopyranosyl)-beta-D-glucopyranosyl]oxy}-7,11,25-trihydroxy-9,10,14-trimethyl-4,9-cyclo-9,10-secocholest-5-en-24-yl beta-D-glucopyranosyl-(1→2)-[beta-D-glucopyranosyl-(1→6)]-beta-D-glucopyranoside] here?
Answer: 30-60 times sweeter than sucrose

Question: And the taste perceived [2, 3]?
Answer: weak sweet taste

Question: With “(1S,4R,9beta,11alpha,24R)-24-{[6-O-(beta-D-glucopyranosyl)-beta-D-glucopyranosyl]oxy}-11,22,25-trihydroxy-9,10,14-trimethyl-4,9-cyclo-9,10-secocholest-5-en-1-yl 4-O-beta-D-glucopyranosyl-beta-D-glucopyranoside [Compound 3a]” as the molecule, how does the taste perceived [2, 4] read?
Answer: No taste

Question: For C[C@H](C(O)C[C@@H](O[C@@H]1O[C@H](CO[C@@H]2O[C@H](CO)[C@@H](O)[C@H](O)[C@H]2O)[C@@H](O)[C@H](O)[C@H]1O)C(C)(C)O)[C@H]1CC[C@@]2(C)[C@@H]3CC=C4[C@@H](CC[C@H](O[C@@H]5O[C@H](CO)[C@@H](O)[C@H](O)[C@H]5O)C4(C)C)[C@]3(C)[C@@H](O)C[C@]12C (stereo partly drawn) [Compound 2b, (1S,4R,9beta,11beta,24R)-1-(beta-D-glucopyranosyloxy)-11,22,25-trihydroxy-9,10,14-trimethyl-4,9-cyclo-9,10-secocholest-5-en-24-yl 6-O-beta-D-glucopyranosyl-beta-D-glucopyranoside], which taste perceived [2, 4] is on record?
Answer: No taste

Question: With CC(C)(O)[C@@H](CC[C@](C)(O)[C@H]1CC[C@@]2(C)[C@@H]3CC=C4[C@@H](CC[C@H](O[C@@H]5O[C@H](CO[C@@H]6O[C@H](CO)[C@@H](O)[C@H](O)[C@H]6O)[C@@H](O)[C@H](O)[C@H]5O[C@@H]5O[C@H](CO)[C@@H](O)[C@H](O)[C@H]5O)C4(C)C)[C@]3(C)C(=O)C[C@]12C)O[C@@H]1O[C@H](CO[C@@H]2O[C@H](CO)[C@@H](O)[C@H](O)[C@H]2O)[C@@H](O)[C@H](O)[C@H]1O [Compound 9a, (1S,4R,9beta,24R)-24-{[6-O-(beta-D-glucopyranosyl)-beta-D-glucopyranosyl]oxy}-20,25-dihydroxy-9,10,14-trimethyl-11-oxo-4,9-cyclo-9,10-secocholest-5-en-1-yl beta-D-glucopyranosyl-(1→2)-[beta-D-glucopyranosyl-(1→6)]-beta-D-glucopyranoside] as the molecule, how does the taste perceived [2, 4] read?
Answer: No taste

Question: Which taste perceived [2, 4] does the source give for C[C@H](C(O)C[C@@H](O[C@@H]1O[C@H](CO[C@@H]2O[C@H](CO)[C@@H](O)[C@H](O)[C@H]2O)[C@@H](O)[C@H](O)[C@H]1O)C(C)(C)O)[C@H]1CC[C@@]2(C)[C@@H]3CC=C4[C@@H](CC[C@H](O[C@@H]5O[C@H](CO[C@@H]6O[C@H](CO)[C@@H](O)[C@H](O)[C@H]6O)[C@@H](O)[C@H](O)[C@H]5O)C4(C)C)[C@]3(C)[C@H](O)C[C@]12C (stereo partly drawn) [Compound 1a, (1S,4R,9beta,11alpha,24R)-1-{[6-O-(beta-D-glucopyranosyl)-beta-D-glucopyranosyl]oxy}-11,22,25-trihydroxy-9,10,14-trimethyl-4,9-cyclo-9,10-secocholest-5-en-24-yl 6-O-beta-D-glucopyranosyl-beta-D-glucopyranoside] here?
Answer: No taste

Question: With “(1S,4R,9beta,24R)-1-{[6-O-(beta-D-glucopyranosyl)-beta-D-glucopyranosyl]oxy}-25-hydroxy-9-(hydroxymethyl)-10,14-dimethyl-11-oxo-4,9-cyclo-9,10-secocholest-5-en-24-yl beta-D-glucopyranosyl-(1→2)-[beta-D-glucopyranosyl-(1→6)]-beta-D-glucopyranoside [Compound 5a]” as the molecule, how does the taste perceived [2, 4] read?
Answer: No taste

Question: Which taste perceived [2, 4] does the source give for CC(C)(O)[C@@H](CC[C@](C)(O)[C@H]1CC[C@@]2(C)[C@@H]3CC=C4[C@@H](CC[C@H](O[C@@H]5O[C@H](CO)[C@@H](O)[C@H](O)[C@H]5O)C4(C)C)[C@]3(C)C(=O)C[C@]12C)O[C@@H]1O[C@H](CO[C@@H]2O[C@H](CO)[C@@H](O)[C@H](O)[C@H]2O)[C@@H](O)[C@H](O)[C@H]1O [Compound 8a, (1S,4R,9beta,24R)-1-(beta-D-glucopyranosyloxy)-20,25-dihydroxy-9,10,14-trimethyl-11-oxo-4,9-cyclo-9,10-secocholest-5-en-24-yl 6-O-beta-D-glucopyranosyl-beta-D-glucopyranoside] here?
Answer: No taste

Question: Which “sweetness relative to sucrose” value [2] does the source give for C[C@H](C(O)C[C@@H](O[C@@H]1O[C@H](CO[C@@H]2O[C@H](CO)[C@@H](O)[C@H](O)[C@H]2O)[C@@H](O)[C@H](O)[C@H]1O)C(C)(C)O)[C@H]1CC[C@@]2(C)[C@@H]3CC=C4[C@@H](CC[C@H](O[C@@H]5O[C@H](CO)[C@@H](O)[C@H](O)[C@H]5O)C4(C)C)[C@]3(C)[C@H](O)C[C@]12C (stereo partly drawn) [Compound 2a, (1S,4R,9beta,11alpha,24R)-1-(beta-D-glucopyranosyloxy)-11,22,25-trihydroxy-9,10,14-trimethyl-4,9-cyclo-9,10-secocholest-5-en-24-yl 6-O-beta-D-glucopyranosyl-beta-D-glucopyranoside] here?
Answer: 20-50 times sweeter than sucrose

Question: And the taste perceived [2, 3]?
Answer: weak sweet taste

Question: For C[C@H](CC[C@@H](O[C@@H]1O[C@H](CO[C@@H]2O[C@H](CO)[C@@H](O)[C@H](O)[C@H]2O)[C@@H](O)[C@H](O)[C@H]1O[C@@H]1O[C@H](CO)[C@@H](O)[C@H](O)[C@H]1O)C(C)(C)O)[C@H]1CC[C@@]2(C)[C@@H]3CC=C4[C@@H](CC[C@H](O[C@@H]5O[C@H](CO[C@@H]6O[C@H](CO)[C@@H](O)[C@H](O)[C@H]6O)[C@@H](O)[C@H](O)[C@H]5O[C@@H]5O[C@H](CO)[C@@H](O)[C@H](O)[C@H]5O)C4(C)C)[C@]3(C)[C@H](O)C[C@]12C (stereo in doubt) [Compound 14a, (1S,4R,9beta,11beta,24R)-1-{[beta-D-glucopyranosyl-(1→2)-[beta-D-glucopyranosyl-(1→6)]-beta-D-glucopyranosyl]oxy}-11,25-dihydroxy-9,10,14-trimethyl-4,9-cyclo-9,10-secocholest-5-en-24-yl beta-D-glucopyranosyl-(1→2)-[beta-D-glucopyranosyl-(1→6)]-beta-D-glucopyranoside], which taste perceived [2, 4] is on record?
Answer: No taste

From patent publication US12227539B2, “Mogroside compounds and uses thereof” (Firmenich SA, priority 2019, dated 2025)
